Structures are written as SMILES. pIC50: −log10 of the molar value.

For the experiment, the target named is interaction between p53 and MDM2 proteins (recombinant GST-tagged MDM2, biotinylated p53 peptide) (Homo sapiens, UniProt Q00987). Nature of the experiment: HTRF assay of inhibition of the p53-MDM2 interaction. It is filed as binding. Particulars: bsa: 0.02%. The protocol:
The ability of the compounds to inhibit the interaction between p53 and MDM2 proteins was measured by an HTRF (homogeneous time-resolved fluorescence) assay in which recombinant GST-tagged MDM2 binds to a peptide that resembles the MDM2-interacting region of p53. Binding of GST-MDM2 protein and p53-peptide (biotinylated on its N-terminal end) is registered by the FRET (fluorescence resonance energy transfer) between Europium (Eu)-labeled anti-GST antibody and streptavidin-conjugated Allophycocyanin (APC).
[…] Add 10 uL diluted compounds (1:5 dilution in reaction buffer) to each well, mix by shaking. Add 20 uL biotinylated p53 peptide (180 nM working solution) in reaction buffer to each well and mix on shaker. Incubate at 37° C. for 1 h. Add 20 uL streptavidin-APC and Eu-anti-GST antibody mixture (6 nM Eu-anti-GST and 60 nM streptavidin-APC working solution) in TBS buffer with 0.2% BSA, shake at room temperature for 30 minutes and read using a TRF-capable plate reader at 665 and 615 nm (Victor 5, Perkin ElmerWallac). If not specified, the reagents were purchased from Sigma Chemical Co.

Chain of interaction between p53 and MDM2 proteins (recombinant GST-tagged MDM2, biotinylated p53 peptide) (Q00987 whole entry): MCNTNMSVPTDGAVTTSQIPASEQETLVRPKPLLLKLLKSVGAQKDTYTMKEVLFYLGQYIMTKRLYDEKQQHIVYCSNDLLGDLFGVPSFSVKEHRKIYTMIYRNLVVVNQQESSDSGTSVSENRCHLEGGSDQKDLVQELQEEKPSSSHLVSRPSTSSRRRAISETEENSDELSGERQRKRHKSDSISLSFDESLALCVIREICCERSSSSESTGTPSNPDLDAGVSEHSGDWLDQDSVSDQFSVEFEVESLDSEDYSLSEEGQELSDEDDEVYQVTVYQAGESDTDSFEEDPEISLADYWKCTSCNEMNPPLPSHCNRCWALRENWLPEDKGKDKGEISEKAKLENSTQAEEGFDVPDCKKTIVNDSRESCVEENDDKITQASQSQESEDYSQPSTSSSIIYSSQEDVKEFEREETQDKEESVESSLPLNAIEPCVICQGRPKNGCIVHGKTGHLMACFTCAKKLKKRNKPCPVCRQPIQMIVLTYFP

The pIC50 is the negative decadic logarithm of the IC50, by convention in mol/L. Regarding `COc1cc(C(N)=O)ccc1N1CN2[C@@H](CC(C)(C)C)[C@@]3(C(=O)Nc4cc(C)ncc43)[C@@H](c3cccc(Cl)c3F)[C@@H]2C1=O` (racemic) [Example 3a, rac-4-((3′R,5S,7S,7aR)-7-(3-chloro-2-fluorophenyl)-6′-methyl-5-neopentyl-1,2′-dioxo-1′,2′,7,7a-tetrahydrospiro[pyrrolo[1,2-c]imidazole-6,3′-pyrrolo[3,2-c]pyridine]-2(1H,3H,5H)-yl)-3-methoxybenzamide], the negative-log IC50 (pIC50) was 7.05.

On to `COc1cc(C(=O)O)ccc1N1CN2[C@@H](CC(C)(C)C)[C@@]3(C(=O)Nc4cc(C)cnc43)[C@@H](c3cccc(Cl)c3F)[C@@H]2C1=O` (racemic) [Example 16, rac-4-((3′S,5S,7S,7aR)-7-(3-chloro-2-fluorophenyl)-6′-methyl-5-neopentyl-1,2′-dioxo-1′,2′,7,7a-tetrahydrospiro[pyrrolo[1,2-c]imidazole-6,3′-pyrrolo[3,2-b]pyridine]-2(1H,3H,5H)-yl)-3-methoxybenzoic acid], for which the pIC50 is 7.66.

For the compound `COc1cc(C(=O)O)ccc1N1CN2[C@@H](CC(C)(C)C)[C@@]3(C(=O)Nc4cc(C)ncc43)[C@@H](c3cccc(Cl)c3F)[C@@H]2C1=O` (racemic) [Example 2, rac-4-((3′R,5S,7S,7aR)-7-(3-chloro-2-fluorophenyl)-6′-methyl-5-neopentyl-1,2′-dioxo-1′,2′,7,7a-tetrahydrospiro[pyrrolo[1,2-c]imidazole-6,3′-pyrrolo[3,2-c]pyridine]-2(1H,3H,5H)-yl)-3-methoxybenzoic acid], the pIC50 is 6.99.

Turning to `COc1cc(C(N)=O)ccc1N1CN2[C@@H](CC(C)(C)C)[C@@]3(C(=O)Nc4cc(Cl)ncc43)[C@@H](c3cccc(Cl)c3F)[C@@H]2C1=O` [Example 1, 4-((3′R,5S,7S,7aR)-6′-chloro-7-(3-chloro-2-fluorophenyl)-5-neopentyl-1,2′-dioxo-1′,2′,7,7a-tetrahydrospiro[pyrrolo[1,2-c]imidazole-6,3′-pyrrolo[3,2-c]pyridine]-2(1H,3H,5H)-yl)-3-methoxybenzamide], the pIC50 is 8.17.

In the case of `COc1cc2c(cn1)[C@@]1(C(=O)N2)[C@H](CC(C)(C)C)N2CN(c3ccc(C(N)=O)cc3OC)C(=O)[C@H]2[C@@H]1c1cccc(Cl)c1F` (racemic) [Example 7, rac-4-((3′R,5S,7S,7aR)-7-(3-chloro-2-fluorophenyl)-6′-methoxy-5-neopentyl-1,2′-dioxo-1′,2′,7,7a-tetrahydrospiro[pyrrolo[1,2-c]imidazole-6,3′-pyrrolo[3,2-c]pyridine]-2(1H,3H,5H)-yl)-3-methoxybenzamide], the pIC50 is 7.82.

For the compound `COc1cc(C(=O)O)ccc1N1CN2[C@@H](CC(C)(C)C)[C@@]3(C(=O)Nc4ncccc43)[C@@H](c3cccc(Cl)c3F)[C@@H]2C1=O` (racemic) [Example 15, rac-4-((3′R,5S,7S,7aR)-7-(3-chloro-2-fluorophenyl)-5-neopentyl-1,2′-dioxo-1′,2′,7,7a-tetrahydrospiro[pyrrolo[1,2-c]imidazole-6,3′-pyrrolo[2,3-b]pyridine]-2(1H,3H,5H)-yl)-3-methoxybenzoic acid], the pIC50 was 7.02.

Regarding `COc1cc(C(N)=O)ccc1N1C(=O)[C@H]2[C@H](c3cccc(Cl)c3F)[C@]3(C(=O)Nc4cc(Cl)ncc43)[C@H](CC(C)(C)C)N2[C@@H]1CO` [Example 13, 4-((3S,3′R,5S,7S,7aR)-6′-chloro-7-(3-chloro-2-fluorophenyl)-3-(hydroxymethyl)-5-neopentyl-1,2′-dioxo-1′,2′,7,7a-tetrahydrospiro[pyrrolo[1,2-c]imidazole-6,3′-pyrrolo[3,2-c]pyridine]-2(1H,3H,5H)-yl)-3-methoxybenzamide], the pIC50 is 8.02.

As to `COc1cc(C(N)=O)ccc1N1C(=O)[C@H]2[C@H](c3cccc(Cl)c3F)[C@]3(C(=O)Nc4cc(Cl)ncc43)[C@H](CC(C)(C)C)N2[C@@H]1C` [Example 11, 4-((3S,3′R,5S,7S,7aR)-6′-chloro-7-(3-chloro-2-fluorophenyl)-3-methyl-5-neopentyl-1,2′-dioxo-1′,2′,7,7a-tetrahydrospiro[pyrrolo[1,2-c]imidazole-6,3′-pyrrolo[3,2-c]pyridine]-2(1H,3H,5H)-yl)-3-methoxybenzamide], the pIC50 is 8.12.

In the case of `COc1cc(C(N)=O)ccc1N1CN2[C@@H](CC(C)(C)C)[C@@]3(C(=O)Nc4nc(Cl)ccc43)[C@@H](c3cccc(Cl)c3F)[C@@H]2C1=O` (racemic) [Example 10, rac-4-((3′R,5S,7S,7aR)-6′-chloro-7-(3-chloro-2-fluorophenyl)-5-neopentyl-1,2′-dioxo-1′,2′,7,7a-tetrahydrospiro[pyrrolo[1,2-c]imidazole-6,3′-pyrrolo[2,3-b]pyridine]-2(1H,3H,5H)-yl)-3-methoxybenzamide], the pIC50 is 7.71.

In the case of `CC[C@@H]1N(c2ccc(C(N)=O)cc2OC)C(=O)[C@H]2[C@H](c3cccc(Cl)c3F)[C@]3(C(=O)Nc4cc(Cl)ncc43)[C@H](CC(C)(C)C)N12` [Example 12, 4-((3S,3′R,5S,7S,7aR)-6′-chloro-7-(3-chloro-2-fluorophenyl)-3-ethyl-5-neopentyl-1,2′-dioxo-1′,2′,7,7a-tetrahydrospiro[pyrrolo[1,2-c]imidazole-6,3′-pyrrolo[3,2-c]pyridine]-2(1H,3H,5H)-yl)-3-methoxybenzamide], the pIC50 was 8.15.

Take `COc1cc2c(cn1)[C@@]1(C(=O)N2)[C@H](CC(C)(C)C)N2CN(c3ccc(C(=O)O)cc3OC)C(=O)[C@H]2[C@@H]1c1cccc(Cl)c1F` (racemic) [Example 6, rac-4-((3′R,5S,7S,7aR)-7-(3-chloro-2-fluorophenyl)-6′-methoxy-5-neopentyl-1,2′-dioxo-1′,2′,7,7a-tetrahydrospiro[pyrrolo[1,2-c]imidazole-6,3′-pyrrolo[3,2-c]pyridine]-2(1H,3H,5H)-yl)-3-methoxybenzoic acid]: the pIC50 is 7.64.

With `COc1cc(C(N)=O)ccc1N1CN2[C@@H](CC(C)(C)C)[C@]3(C(=O)Nc4cc(C)ncc43)[C@@H](c3cccc(Cl)c3F)[C@@H]2C1=O` (racemic) [Example 3b, rac-4-((3′S,5S,7S,7aR)-7-(3-chloro-2-fluorophenyl)-6′-methyl-5-neopentyl-1,2′-dioxo-1′,2′,7,7a-tetrahydrospiro[pyrrolo[1,2-c]imidazole-6,3′-pyrrolo[3,2-c]pyridine]-2(1H,3H,5H)-yl)-3-methoxybenzamide], the negative-log IC50 (pIC50) is 5.94.

Take `COc1cc(C(N)=O)ccc1N1C(=O)[C@H]2[C@H](c3cccc(Cl)c3F)[C@]3(C(=O)Nc4cc(Cl)ncc43)[C@H](CC(C)(C)C)N2[C@@H]1CCC1CCOCC1` [Example 14, 4-((3S,3′R,5S,7S,7aR)-6′-chloro-7-(3-chloro-2-fluorophenyl)-5-neopentyl-1,2′-dioxo-3-(2-(tetrahydro-2H-pyran-4-yl)ethyl)-1′,2′,7,7a-tetrahydrospiro[pyrrolo[1,2-c]imidazole-6,3′-pyrrolo[3,2-c]pyridine]-2(1H,3H,5H)-yl)-3-methoxybenzamide]: the pIC50 is 8.12.

As for `COc1cc(C(=O)O)ccc1N1CN2[C@@H](CC(C)(C)C)[C@@]3(C(=O)Nc4ccncc43)[C@@H](c3cccc(Cl)c3F)[C@@H]2C1=O` (racemic) [Example 5, rac-4-((3′R,5S,7S,7aR)-7-(3-chloro-2-fluorophenyl)-5-neopentyl-1,2′-dioxo-1′,2′,7,7a-tetrahydrospiro[pyrrolo[1,2-c]imidazole-6,3′-pyrrolo[3,2-c]pyridine]-2(1H,3H,5H)-yl)-3-methoxybenzoic acid], the pIC50 was 6.10.

With `COc1cc(C(=O)O)ccc1N1CN2[C@@H](CC(C)(C)C)[C@@]3(C(=O)Nc4nc(Cl)ccc43)[C@@H](c3cccc(Cl)c3F)[C@@H]2C1=O` (racemic) [Example 9, rac-4-((3′R,5S,7S,7aR)-6′-chloro-7-(3-chloro-2-fluorophenyl)-5-neopentyl-1,2′-dioxo-1′,2′,7,7a-tetrahydrospiro[pyrrolo[1,2-c]imidazole-6,3′-pyrrolo[2,3-b]pyridine]-2(1H,3H,5H)-yl)-3-methoxybenzoic acid], the pIC50 is 7.82.

The values are drawn from US20130053410A1, “SUBSTITUTED HETEROARYL 2',3',7',7A'-TETRAHYDROSPIRO[PYRROLE-3,6'-PYRROLO[1,2-C]IMIDAZOLE]-1',2(1H,5'H)-DIONE” (priority 2011, published 2013).
